What was measured:
Format in all cases: in vivo
[1] = test system: Monochoria vaginalis; experiment: Test Example 1: herbicidal activity, application before weed generation in submerged conditions (symbol C); conditions: application herbicide amount 320 g/ha
In short: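 Application before weed emergence: an aqueous dilution of the emulsion formulation was poured onto the surface of 4 cm-deep floodwater on the day of sowing. Effect was judged after 3 weeks (greenhouse, 25–30 °C).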

[2] = test system: Echinochloa oryzacola Vasing.; experiment: Test Example 2: herbicidal activity, application during weed generation in submerged conditions (symbol A); conditions: Table 23; application herbicide amount 320 g/ha; grade 0-5 by criteria of Test Example 1
In short: (§1)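 Visual herbicidal ratings, taken three weeks after dosing, reflect post-emergence water-surface application to seedlings at one to two leaves. Conditions: co-sown weeds in alluvial soil flooded to 4 cm, greenhouse held at 25° C. to 30° C.; compound given as water-diluted emulsion at a fixed herbicide amount.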

[3] = test system: Avena fatua; experiment: Test Example 4: herbicidal effect by soil treatment (symbol I); conditions: application herbicide amount 320 g/ha
In short: (§2)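 Seeds were sown in sterilized diluvial soil, covered with about 1.5 cm of soil, and the soil surface was sprayed with a water-diluted emulsion of the compound at a predetermined rate. Plants grew in a greenhouse at 25° C. to 30° C.; effects were scored visually 3 weeks after application.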

[4] = test system: Galium spurium; experiment: Test Example 4: herbicidal effect by soil treatment (symbol Q); conditions: application herbicide amount 320 g/ha
In short: as §2

[5] = test system: rice plant; experiment: Test Example 5: effect on crop by foliage application, plastic box (symbol b); conditions: 320 g/ha, 3 weeks after application
In short: (§3)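 Soil: sterilized diluvial. Container: plastic box, 21 × 13 cm, 7 cm deep. Sowing: spot-like, ~1.5 cm cover. Growth: greenhouse, 25° C. to 30° C.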

[6] = test system: Lolium multiflorum Lam.; experiment: Test Example 5: herbicidal effect by foliage application, plastic box (symbol K); conditions: 320 g/ha, 3 weeks after application
In short: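 Emulsion formulation, diluted with water to the intended rate, was applied uniformly to leaves by small sprayer. Recipients were 14-day greenhouse-grown seedlings (25° C. to 30° C.). Assessment followed at 3 weeks.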

[7] = test system: corn; experiment: Test Example 5: effect on crop by foliage application, plastic box (symbol c); conditions: 320 g/ha, 3 weeks after application
In short: as §3

[8] = test system: Apera spica-venti; experiment: Test Example 4: herbicidal effect by soil treatment (symbol L); conditions: application herbicide amount 320 g/ha
In short: as §2

[9] = test system: Scirpus juncoides; experiment: Test Example 2: herbicidal activity, application during weed generation in submerged conditions (symbol B); conditions: Table 23; application herbicide amount 320 g/ha; grade 0-5 by criteria of Test Example 1
In short: as §1

[10] = test system: Digitaria ciliaris; experiment: Test Example 4: herbicidal effect by soil treatment (symbol F); conditions: application herbicide amount 320 g/ha
In short: as §2

[11] = test system: Abutilon theophrasti; experiment: Test Example 4: herbicidal effect by soil treatment (symbol M); conditions: application herbicide amount 320 g/ha
In short: as §2

[12] = test system: Chenopodium album; experiment: Test Example 4: herbicidal effect by soil treatment (symbol O); conditions: application herbicide amount 320 g/ha
In short: as §2

[13] = test system: soybean; experiment: Test Example 5: effect on crop by foliage application, plastic box (symbol d); conditions: 320 g/ha, 3 weeks after application
In short: as §3

[14] = test system: Echinochloa crus-galli var. crus-galli; experiment: Test Example 4: herbicidal effect by soil treatment (symbol H); conditions: application herbicide amount 320 g/ha
In short: as §2

[15] = test system: rapeseed; experiment: Test Example 4: effect on crop by soil treatment (symbol g); conditions: application herbicide amount 320 g/ha
In short: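 Plants are raised in a greenhouse (25° C. to 30° C.) from spot-sown seed, which sits under about 1.5 cm of sterilized diluvial soil in a box shared with weed species.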

[16] = test system: corn; experiment: Test Example 4: effect on crop by soil treatment (symbol c); conditions: application herbicide amount 320 g/ha
In short: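 Crop seed is sown in spots together with several weed species in a box of sterilized diluvial soil. It is covered by about 1.5 cm of soil and kept in a greenhouse held between 25° C. and 30° C.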

[17] = test system: Monochoria vaginalis; experiment: Test Example 2: herbicidal activity, application during weed generation in submerged conditions (symbol C); conditions: Table 23; application herbicide amount 320 g/ha; grade 0-5 by criteria of Test Example 1
In short: as §1

| Compound | Herbicidal effect grade, C: Monochoria vaginalis [1] | Herbicidal effect grade, A: Echinochloa oryzacola Vasing. [2] | I: Avena fatua, herbicidal effect grade [3] | Q: Galium spurium, herbicidal effect grade [4] | b: directly sowed rice plant, effect on crop grade [5] | K: Lolium multiflorum Lam., herbicidal effect grade [6] | c: corn, effect on crop grade [7] | L: Apera spica-venti, herbicidal effect grade [8] | Herbicidal effect grade, B: Scirpus juncoides [9] | F: Digitaria ciliaris, herbicidal effect grade [10] | M: Abutilon theophrasti, herbicidal effect grade [11] | O: Chenopodium album, herbicidal effect grade [12] | d: soybean, effect on crop grade [13] | H: Echinochloa crus-galli var. crus-galli, herbicidal effect grade [14] | g: rapeseed, effect on crop grade [15] | c: corn, effect on crop grade [16] | Herbicidal effect grade, C: Monochoria vaginalis [17] |
| --- | --- | --- | --- | --- | --- | --- | --- | --- | --- | --- | --- | --- | --- | --- | --- | --- | --- |
| Cc1cc(C)c(C2=C(O)CC(CC(=O)C3CCCC3)C2=O)c(C)c1 (stereo not shown) [2-028] | 0 (Herbicidal ratio of 5% or lower (almost no effect)) | 3 (Herbicidal ratio of 40% or higher and lower than 70%) | 0 (Herbicidal ratio of 5% or lower (almost no effect)) | 0 (Herbicidal ratio of 5% or lower (almost no effect)) | 5 (Herbicidal ratio of 90% or more (almost completely withered)) | 5 (Herbicidal ratio of 90% or more (almost completely withered)) | 4 (Herbicidal ratio of 70% or higher and lower than 90%) | 2 (Herbicidal ratio of 20% or higher and lower than 40%) | 0 (Herbicidal ratio of 5% or lower (almost no effect)) | 4 (Herbicidal ratio of 70% or higher and lower than 90%) | 1 (Herbicidal ratio of 5% or higher and lower than 20%) | 0 (Herbicidal ratio of 5% or lower (almost no effect)) | 0 (Herbicidal ratio of 5% or lower (almost no effect)) | 1 (Herbicidal ratio of 5% or higher and lower than 20%) | 0 (Herbicidal ratio of 5% or lower (almost no effect)) | 2 (Herbicidal ratio of 20% or higher and lower than 40%) | 0 (Herbicidal ratio of 5% or lower (almost no effect)) |
| CCOC(=O)C(C(=O)c1ccccn1)C1CC(O)=C(c2c(C)cc(C)cc2C)C1=O (stereo not shown) [2-013] | 0 (Herbicidal ratio of 5% or lower (almost no effect)) | 0 (Herbicidal ratio of 5% or lower (almost no effect)) | 0 (Herbicidal ratio of 5% or lower (almost no effect)) | 0 (Herbicidal ratio of 5% or lower (almost no effect)) | 5 (Herbicidal ratio of 90% or more (almost completely withered)) | 5 (Herbicidal ratio of 90% or more (almost completely withered)) | 4 (Herbicidal ratio of 70% or higher and lower than 90%) | 0 (Herbicidal ratio of 5% or lower (almost no effect)) | 0 (Herbicidal ratio of 5% or lower (almost no effect)) | 1 (Herbicidal ratio of 5% or higher and lower than 20%) | 0 (Herbicidal ratio of 5% or lower (almost no effect)) | 0 (Herbicidal ratio of 5% or lower (almost no effect)) | 0 (Herbicidal ratio of 5% or lower (almost no effect)) | 1 (Herbicidal ratio of 5% or higher and lower than 20%) | 0 (Herbicidal ratio of 5% or lower (almost no effect)) | 0 (Herbicidal ratio of 5% or lower (almost no effect)) | 0 (Herbicidal ratio of 5% or lower (almost no effect)) |
